Data as given in patent publication EP2607478A1, “Phenanthroline treated MSC” (Universiteit Twente, priority 2011, dated 2013).

Columns and labels:
MSCs = test: Gene expression analysis by real-time qPCR in treated MSCs; format: cell-based, Human; settings: for expression of Il-8, VEGF, KDR and Foxc2: 2 days treatment, medium refreshed, 2 more days in basic medium (Figure 8); for VEGF expression: after 2 days of treatment and 2 more days of incubation with fresh medium (Figure 8)
Description: MSCs were seeded in triplicate in 6-well plates at 5000 cells/cm^2 and allowed to attach for 10-15 hours in proliferation medium. Upon reaching near confluency, cells were treated as described above. After 2 days of treatment and 2 subsequent days of incubation with fresh medium, cells were lysed immediately with TRIzol. RNA was isolated using a Bioke RNA II nucleospin RNA isolation kit (Machery Nagel) and RNA concentrations were measured using an ND100 spectrophotometer (Nanodrop technologies, USA). cDNA was synthesized from 100 ng of RNA, using iScript (BioRad) according to the manufacturer's protocol. For qualitative PCR, a master mix, containing distilled water, forward primer, reverse primer (Sigma Genosys), BSA, and SYBR green I mix (all from Invitrogen) was prepared. Real-time qPCR was performed in a Light-Cycler (Roche). Light-Cycler data was analyzed using the fit points method of Light-Cycler software. The baseline was set at the lower log-linear part above baseline noise and the crossing […] (Ct value) was determined. Ct values were normalized to the 18S housekeeping gene and delta Ct (Ct, control ― Ct, sample) was used to calculate the upregulation in gene expression (53).

[1] = test system: immortalized MSC cell line; test: Screen for hypoxia mimics with hypoxia response element reporter in immortalized MSC; format: cell-based; settings: clonally expanded immortalized MSC cell line
Source text: Because previous screening methods were based mostly on cancer cells and the results thereof can not necessarily be extrapolated to MSC, a novel screening method was developed, based on an immortalized MSC. Using this screening method, we quickly screened a large panel of potential compounds for effects on MSC. Such screening method is useful for screening a large panel of compound for their ability to modulate (i.e. increase or decrease) an angiogenic capacity of a MSC. […]
It is possible to use for instance an (immortalized) MSC and transfect it with a HRE-luciferase construct as described in Said et al (56) or with a 5HRE-ODD-luc construct described in Saha et al (57). Detection of transcription of the reporter gene is then easily achieved by measuring luciferase activity (luminescence) of the cells after contacting said MSC with the compound. […] As a consequence, reporter gene expression is increased, which can be detected, in case of luciferase, by measuring an increase in luminescence in these cells. Vice versa, decreased luminescence is indicative for a compound able to inhibit angiogenesis, which compound may subsequently be used for anti-angiogenic therapy, for instance in anti-tumor therapy. […]

| SMILES | expression of Il-8, VEGF, KDR and Foxc2 (MSCs) | VEGF expression (MSCs) | ability to mimic hypoxia in MSCs [1] |
| --- | --- | --- | --- |
| CC(=O)N(O)CCCCCNC(=O)CCC(=O)N(O)CCCCCNC(=O)CCC(=O)N(O)CCCCCN [DFO, reference compound] | returned to basal levels | comparable to non-treated cells |  |
| c1cnc2c(c1)ccc1cccnc12 [PHE, 1, 10-phenanthroline] | still significantly increased | still highly expressed | able to mimic hypoxia in MSCs |
